In patent US9695155B2, “Herbicidal substituted pyrimidinyloxy benzene compounds” (E. I. DU PONT DE NEMOURS AND COMPANY, priority 2013, dated 2017):

Assays:
[1] = system: corn; experiment: Test C postemergence; type: in vivo, Zea mays
How it was run: (§1)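 Injury was assessed visually against controls 13 to 15 days after application, with 0 meaning no effect and 100 full control; missing entries are shown as a dash. Preemergence sprays hit seeded loam–sand soil, postemergence sprays hit 1- to 4-leaf plants.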

[2] = system: large (Lg) crabgrass; experiment: Test C preemergence; type: in vivo, Digitaria sanguinalis; conditions: for Crabgrass, Large plant response rating: preemergence
How it was run: as §1

[3] = system: wheat, winter; experiment: Test C postemergence; type: in vivo, Triticum aestivum
How it was run: as §1

[4] = system: pigweed; experiment: Test C preemergence; type: in vivo, Amaranthus retroflexus; conditions: preemergence
How it was run: as §1

[5] = system: giant foxtail; experiment: Test C postemergence; type: in vivo, Setaria faberii
How it was run: as §1

[6] = system: giant foxtail; experiment: Test A postemergence; type: in vivo, Setaria faberii; conditions: 1000 g ai/ha, 0 to 100 scale, 0 no effect, 100 complete control
How it was run: (§2)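 Greenhouse pot test, loam/sand soil. Formulation: non-phytotoxic solvent mix plus surfactant. Pre: directed spray onto soil after sowing. Post: plants at 1–2 leaf, 2–10 cm. Rated visually vs untreated controls at ~10 d, 0 (no effect) to 100 (complete control).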

[7] = system: barnyardgrass; experiment: Test C postemergence; type: in vivo, Echinochloa crus-galli
How it was run: as §1

[8] = system: kochia; experiment: Test C postemergence; type: in vivo, Kochia scoparia
How it was run: as §1

[9] = system: yellow nutsedge; experiment: Test C postemergence; type: in vivo, Cyperus esculentus
How it was run: as §1

[10] = system: lambsquarters; experiment: Test C preemergence; type: in vivo, Chenopodium album; conditions: preemergence
How it was run: as §1

[11] = system: corn; experiment: Test C preemergence; type: in vivo, Zea mays; conditions: for Corn plant response rating: preemergence
How it was run: as §1

[12] = system: blackgrass; experiment: Test C postemergence; type: in vivo, Alopecurus myosuroides
How it was run: as §1

[13] = system: corn; experiment: Test A postemergence; type: in vivo, Zea mays; conditions: 1000 g ai/ha, 0 to 100 scale, 0 no effect, 100 complete control
How it was run: as §2

[14] = 16 g ai/ha, postemergence, 0 is no effect, 100 is complete control
[15] = 31 g ai/ha, postemergence, visual rating, scale 0 to 100 (0 no effect, 100 complete control), 13 to 15 days
[16] = 125 g ai/ha, postemergence, visual rating, scale 0 to 100 (0 no effect, 100 complete control)
[17] = Postemergence, 62 g ai/ha, scale 0 to 100 (0 no effect, 100 complete control)
[18] = 16 g ai/ha, scale 0 to 100 (0 no effect, 100 complete control)
[19] = 62 g ai/ha, scale 0 (no effect) to 100 (complete control)
[20] = 125 g ai/ha, scale 0 (no effect) to 100 (complete control)
[21] = Preemergence, 31 g ai/ha, scale 0 to 100, 0 no effect, 100 complete control

FCc1cn(-c2c(F)cccc2Oc2ncc(Cl)cn2)nn1 [Compound 154]
Plant response rating (0 to 100), Corn [1, 14]: 0
Corn plant response rating [1, 15]: 0
Plant response rating, Corn [1, 16]: 0
Plant response rating, Corn [1, 17]: 0
Crabgrass, Large plant response rating [2, 18]: 75
Crabgrass, Large plant response rating [2, 19]: 100
Crabgrass, Large plant response rating [2, 20]: 100
Plant response rating, Crabgrass, Large [2, 21]: 90
Plant response rating (0 to 100), Wheat [3, 14]: 0
Wheat plant response rating [3, 15]: 0
Plant response rating, Wheat [3, 16]: 5
Plant response rating, Wheat [3, 17]: 0
Pigweed plant response rating [4, 18]: 85
Pigweed plant response rating [4, 19]: 100
Pigweed plant response rating [4, 20]: 100
Plant response rating (0 to 100), Foxtail, Giant [5, 14]: 5
Foxtail, Giant plant response rating [5, 15]: 10
Plant response rating, Foxtail, Giant [5, 16]: 15
Plant response rating, Foxtail, Giant [5, 17]: 5
Plant response rating, Foxtail, Giant [6]: 100
Plant response rating (0 to 100), Barnyardgrass [7, 14]: 5
Barnyardgrass plant response rating [7, 15]: 5
Plant response rating, Barnyardgrass [7, 16]: 20
Plant response rating, Barnyardgrass [7, 17]: 10
Plant response rating (0 to 100), Kochia [8, 14]: 50
Kochia plant response rating [8, 15]: 50
Plant response rating, Kochia [8, 16]: 80
Plant response rating, Kochia [8, 17]: 80
Plant response rating (0 to 100), Nutsedge, Yellow [9, 14]: 5
Nutsedge, Yellow plant response rating [9, 15]: 10
Plant response rating, Nutsedge, Yellow [9, 16]: 10
Plant response rating, Nutsedge, Yellow [9, 17]: 10
Lambsquarters plant response rating [10, 18]: 70
Lambsquarters plant response rating [10, 19]: 90
Lambsquarters plant response rating [10, 20]: 100
Corn plant response rating [11, 18]: 5
Corn plant response rating [11, 19]: 5
Corn plant response rating [11, 20]: 10
Plant response rating, Corn [11, 21]: 0
Plant response rating (0 to 100), Blackgrass [12, 14]: 0
Blackgrass plant response rating [12, 15]: 0
Plant response rating, Blackgrass [12, 16]: 0
Plant response rating, Blackgrass [12, 17]: 0
Plant response rating, Corn [13]: 90
